Earlier results, collected in PubChem BioAssay AID1259409 (Chemical Carcinogenesis Research Information System (CCRIS), 2018).
Several values for one entry are separate records, joined by “and”; a condition that tells them apart may be missing. Equal entries are not always repeated. *1 amine or outer side, *2 acyl side, *3 side chain or, on linkers, in order; H or OH if unused. Where a SMILES comes first, the peptide text is derived from it. CO = O=C([*:1])[*:2]

System: rodent chemically induced tumor inhibition, incidence and multiplicity
Experiment: CCRIS tumor inhibitor studies

CC(C)[C@H](NC(=O)[C@H](CCCN=C(N)N)NC(=O)N[C@@H](Cc1ccccc1)C(=O)O)C(=O)N[C@H](C=O)CCCN=C(N)N ({Phe-CO}-Arg-Val-Arg-aldehyde)
tumour outcome (control, treated, inhibition, significance) (Carcinogen: 1,2,3,4,5,6-HEXACHLOROCYCLOHEXANE, 319-84-6, Dose [Inhibitor]: 0.1% IN DIET FOR 12 WK POST CARCINOGEN TREATMENT (STUDY DURATION: 48 WK), Route [Inhibitor]: ORAL, Species: MOUSE, Strain/Sex: DDY/MALE, Target Tissue: Type of Lesion: LIVER: NODULAR HYPERPLASIA, Dose [Carcinogen]: 500 PPM IN DIET FOR 24 WK, Promoter: NONE USED): 1/13 (7%), 2/15 (13%), -86%, not significant
tumour outcome (control, treated, inhibition, significance) (Carcinogen: N-BUTYL-N-(4-HYDROXY-BUTYL)NITROSAMINE, 3817-11-6, Dose [Inhibitor]: 0.1% IN DIET FOR 32 WK POST CARCINOGEN TREATMENT (STUDY DURATION: 40 WK), Route [Inhibitor]: ORAL, Species: MOUSE, Strain/Sex: ICR/MALE, Target Tissue: Type of Lesion: URINARY BLADDER: CANCER, Dose [Carcinogen]: 0.05% IN DRINKING WATER FOR FIRST 8 WK THEN FED BASAL DIET CONTAINING INHIBITOR, Promoter: NONE USED): 1/13 (8%), 3/15 (20%), -150%, not significant
tumour outcome (control, treated, inhibition, significance) (Carcinogen: N-BUTYL-N-(4-HYDROXY-BUTYL)NITROSAMINE, 3817-11-6, Dose [Inhibitor]: 0.1% IN DIET FOR 32 WK POST CARCINOGEN TREATMENT (STUDY DURATION: 40 WK), Route [Inhibitor]: ORAL, Species: MOUSE, Strain/Sex: ICR/MALE, Target Tissue: Type of Lesion: URINARY BLADDER: PAPILLARY OR NODULAR HYPERPLASIA, Dose [Carcinogen]: 0.05% IN DRINKING WATER FOR FIRST 8 WK THEN FED BASAL DIET CONTAINING INHIBITOR, Promoter: NONE USED): 4/13 (31%), 8/15 (53%), -71%, not significant
tumour outcome (control, treated, inhibition, significance) (Carcinogen: URETHANE, 51-79-6, Dose [Inhibitor]: 11 INJECTIONS (100 UG/G BW FOR EACH) AT 12 HR INTERVALS FROM 0-120 HR AFTER URETHANE TREATMENT (STUDY DURATION: 5 MO), Route [Inhibitor]: INTRAPERITONEAL, Species: MOUSE, Strain/Sex: ICR/JCI/FEMALE, Target Tissue: Type of Lesion: LUNG: TUMOR, Dose [Carcinogen]: 1.0 MG/G BW ONCE, Promoter: NONE USED): 49/53 (92%), 38/46 (83%), 10%, not significant
tumour outcome (control, treated, inhibition, significance) (Carcinogen: URETHANE, 51-79-6, Dose [Inhibitor]: 11 INJECTIONS (100 UG/G BW FOR EACH) AT 12 HR INTERVALS FROM 240-360 HR AFTER URETHANE TREATMENT (STUDY DURATION: 5 MO), Route [Inhibitor]: INTRAPERITONEAL, Species: MOUSE, Strain/Sex: ICR/JCI/FEMALE, Target Tissue: Type of Lesion: LUNG: TUMOR, Dose [Carcinogen]: 1.0 MG/G BW ONCE, Promoter: NONE USED): 49/53 (92%), 34/45 (76%), 17%, p<0.05

CC(=O)O[C@@H]1C(=O)O[C@H]2[C@@H]1OC(=O)[C@@H]2OC(C)=O
tumour outcome (control, treated, inhibition, significance) (Carcinogen: 2-(ACETYLAMINO)FLUORENE, 6292-55-3, Dose [Inhibitor]: 1.2% IN DIET SIMULTANEOUSLY WITH CARCINOGEN (STUDY DURATION: 30 WK), Route [Inhibitor]: ORAL, Species: RAT, Strain/Sex: WISTAR/MALE, Target Tissue: Type of Lesion: URINARY BLADDER: TUMOR, Dose [Carcinogen]: 0.04% IN DIET SUPPLEMENTED WITH 1.4% D,L-TRYPTOPHAN, Promoter: NONE USED): 7/45 (20%), 11/40 (28%), -40%, not calculated
tumour outcome (control, treated, inhibition, significance) (Carcinogen: 2-(ACETYLAMINO)FLUORENE, 6292-55-3, Dose [Inhibitor]: 1.2% IN DIET SIMULTANEOUSLY WITH CARCINOGEN (STUDY DURATION: 30 WK), Route [Inhibitor]: ORAL, Species: RAT, Strain/Sex: WISTAR/MALE, Target Tissue: Type of Lesion: URINARY BLADDER: TUMOR, Dose [Carcinogen]: 0.04% IN VITAMIN B6 DEFICIENT DIET, Promoter: NONE USED): 6/33 (18%), 2/38 (5%), 72%, not calculated
tumour outcome (control, treated, inhibition, significance) (Carcinogen: 7,12-DIMETHYLBENZ[A]ANTHRACENE, 57-97-6, Dose [Inhibitor]: 400 MG/KG, 30 MIN BEFORE DMBA TREATMENT AND 3 HR AFTER DMBA TREATMENT (STUDY DURATION: 36 WK), Route [Inhibitor]: INTRAGASTRIC, Species: RAT, Strain/Sex: SPRAGUE-DAWLEY/FEMALE, Target Tissue: Type of Lesion: MAMMARY GLAND: TUMOR, Dose [Carcinogen]: 130 MG/KG ONCE, Promoter: NONE USED): 92%, 22%, 76%, not calculated

COc1ccc(O)cc1C(C)(C)C
tumour outcome (control, treated, inhibition, significance) (Carcinogen: BENZO[A]PYRENE, 50-32-8, Dose [Inhibitor]: 0.03 MMOL/G OF DIET DAILY STARTING 7 D BEFORE AND CONTINUING THROUGH 3 D AFTER CARCINOGEN TREATMENT FOLLOWED BY OBSERVAT, Route [Inhibitor]: ORAL, Species: MOUSE, Strain/Sex: ICR/FEMALE, Target Tissue: Type of Lesion: FORESTOMACH: NEOPLASM, Dose [Carcinogen]: 1 MG IN 0.2 ML CORN OIL 2/WK FOR 4 WK, Promoter: NONE USED): 94%, 60%, 36%, p<0.05 and 90%, 65%, 28%, not significant
tumour outcome (control, treated, inhibition, significance) (Carcinogen: CIPROFIBRATE, 52214-84-3, Dose [Inhibitor]: 0.5% IN DIET FOR 60 WK (STUDY DURATION: 60 WK), Route [Inhibitor]: ORAL, Species: RAT, Strain/Sex: F344/MALE, Target Tissue: Type of Lesion: LIVER: TUMOR, Dose [Carcinogen]: 10 MG/KG/BW IN DIET SIMULTANEOUSLY WITH INHIBITOR FOR 60 WK, Promoter: NONE USED): 22/25 (88%), 12/25 (48%), 45%, p<0.005

CC(C)c1cc2c(c(O)c1O)[C@@]13CCCC(C)(C)[C@@H]1C[C@@H]2OC3=O
tumour outcome (control, treated, inhibition, significance) (Carcinogen: 7,12-DIMETHYLBENZ[A]ANTHRACENE, 57-97-6, Dose [Inhibitor]: 0, 1 UMOL IN 200 µL ACETONE 2/WK FOR 20 WK BEGINNING 1 WK POST CARCINOGEN DOSE (STUDY DURATION: 20 WK), Route [Inhibitor]: DERMAL, Species: MOUSE, Strain/Sex: CD-1/FEMALE, Target Tissue: Type of Lesion: SKIN: TUMOR, Dose [Carcinogen]: 200 NMOL IN 200 µL ACETONE ONCE, Promoter: 12-O-TETRADECANOYLPHORBOL-13-ACETATE, 16561-29-8): 93%, 93%, 0%, not significant
tumour outcome (control, treated, inhibition, significance) (Carcinogen: 7,12-DIMETHYLBENZ[A]ANTHRACENE, 57-97-6, Dose [Inhibitor]: 0, 3 UMOL IN 200 µL ACETONE 2/WK FOR 20 WK BEGINNING 1 WK POST CARCINOGEN DOSE (STUDY DURATION: 20 WK), Route [Inhibitor]: DERMAL, Species: MOUSE, Strain/Sex: CD-1/FEMALE, Target Tissue: Type of Lesion: SKIN: TUMOR, Dose [Carcinogen]: 200 NMOL IN 200 µL ACETONE ONCE, Promoter: 12-O-TETRADECANOYLPHORBOL-13-ACETATE, 16561-29-8): 93%, 78%, 16%, not significant
tumour outcome (control, treated, inhibition, significance) (Carcinogen: 7,12-DIMETHYLBENZ[A]ANTHRACENE, 57-97-6, Dose [Inhibitor]: 0, 10 UMOL IN 200 µL ACETONE 2/WK FOR 20 WK BEGINNING 1 WK POST CARCINOGEN DOSE (STUDY DURATION: 20 WK), Route [Inhibitor]: DERMAL, Species: MOUSE, Strain/Sex: CD-1/FEMALE, Target Tissue: Type of Lesion: SKIN: TUMOR, Dose [Carcinogen]: 200 NMOL IN 200 µL ACETONE ONCE, Promoter: 12-O-TETRADECANOYLPHORBOL-13-ACETATE, 16561-29-8): 93%, 60%, 35%, not significant

C[C@H](CCC(=O)O)[C@H]1CC[C@H]2[C@@H]3[C@@H](O)C[C@@H]4C[C@H](O)CC[C@]4(C)[C@H]3CC[C@]12C
tumour outcome (control, treated, inhibition, significance) (Carcinogen: AZOXYMETHANE, 25843-45-2, Dose [Inhibitor]: 0, 0.2% IN DIET FOR 28 WK BEGINNING 2 WK PRIOR TO CARCINOGEN TREATMENT (STUDY DURATION: 30 WK), Route [Inhibitor]: ORAL, Species: RAT, Strain/Sex: F344/MALE, Target Tissue: Type of Lesion: COLON: TUMOR, Dose [Carcinogen]: 15 MG/KG BW 1/WK FOR 2 WK, Promoter: CHOLIC ACID, 81-25-4): 30/47 (64%), 20/47 (43%), 33%, not significant
tumour outcome (control, treated, inhibition, significance) (Carcinogen: AZOXYMETHANE, 25843-45-2, Dose [Inhibitor]: 0, 0.2% IN DIET FOR 28 WK BEGINNING 2 WK PRIOR TO CARCINOGEN TREATMENT (STUDY DURATION: 30 WK), Route [Inhibitor]: ORAL, Species: RAT, Strain/Sex: F344/MALE, Target Tissue: Type of Lesion: COLON: TUMOR, Dose [Carcinogen]: 15 MG/KG BW 1/WK FOR 2 WK, Promoter: NONE USED): 20/43 (47%), 23/48 (48%), -2%, not significant
tumour outcome (control, treated, inhibition, significance) (Carcinogen: AZOXYMETHANE, 25843-45-2, Dose [Inhibitor]: 0, 0.4% IN DIET FOR 28 WK BEGINNING 2 WK PRIOR TO CARCINOGEN TREATMENT (STUDY DURATION: 30 WK), Route [Inhibitor]: ORAL, Species: RAT, Strain/Sex: F344/MALE, Target Tissue: Type of Lesion: COLON: TUMOR, Dose [Carcinogen]: 15 MG/KG BW 1/WK FOR 2 WK, Promoter: NONE USED): 20/43 (47%), 10/45 (22%), 53%, p<0.05

II
outcome (Carcinogen: N-METHYL-N-NITROSOUREA [684-93-5], Dose [Inhibitor]: 0.05% I2 IN DRINKING WATER, 2 WKS BEFORE CARCINOGEN AND FOR 26 WKS AFTER, Route [Inhibitor]: DRINKING WATER, Species: RAT, Strain/Sex: SPRAGUE-DAWLEY/FEMALE, Target Tissue: Type of Lesion: MAMMARY GLAND: CARCINOMA, Dose [Carcinogen]: 50 MG/KG BW ONCE AT 7 WKS OF AGE (IN SALINE SOLUTION)): 8/11 (73%) vs 3/10 (30%) at 16 wks, p<0.05
outcome (Carcinogen: N-Methyl-N- nitrosourea (684-93-5), Dose [Inhibitor]: 0, 0.05% in drinking water for a total of 18 wks, Route [Inhibitor]: Oral, Species: Rat, Strain/Sex: Sprague-Dawley, female, Target Tissue: Type of Lesion: Mammary gland, Dose [Carcinogen]: 50 mg, study duration 16 wks after carcinogen): 100%, 62.5%, p<0.05
